According to patent US20110039721A1, “METHOD FOR PREDICTION ABOUT CARCINOGENICITY OF SUBSTANCE IN RODENT” (Chemicals Evaluation and Research Institute, priority 2007, published 2011):

Tested on: mRNA expressed from the genes (A) to (D) in rat liver
Test: Behavior of genes (mRNA expression level, oligo-DNA microarray) in rat liver after 28-day oral administration
Assay type: in vivo
Conditions: mRNA vs vehicle control group
Protocol: A test solution was prepared by dissolving each of the carcinogens and the non-carcinogens shown in Tables 2 to 6 in the corresponding solvent shown in Tables 2 to 6. Each of the thus prepared test solutions and the solvents used for the preparation was administered by oral gavage to rats in each group. As the rats, male rats (F344 SPF rats) at 5 weeks of age obtained from Charles River Laboratories Japan, Inc. were used. The animals were divided into groups, each containing four individuals. The volume of the solvent administered to the vehicle control group was set to the same volume as that of the test solution administered to the carcinogen administration group or the non-carcinogen administration group. The administration of the test solution or the solvent was performed once daily for 28 days. Apiece was excised from the liver of each of the rats after a lapse of 28 days from the initiation of the administration, and the total RNA was extracted and purified.
The expression level of mRNA was compared between each of the chemical substance administration groups and the corresponding vehicle control group, and genes that satisfy the requirements described in (A) to (D) were selected, respectively.
The case where the expression level of mRNA in the carcinogen administration group or the non-carcinogen administration group is 1.5 times or more or 1/1.5 or less of the expression level of the corresponding mRNA expressed in the control group was determined to be significant. In this connection, the determination as to whether or not the change is significant was performed by taking into consideration the direction of increase or decrease in the expression level. In the case where the direction of increase or decrease is different as compared with the case where another carcinogen was administered, the change was determined to be not significant.

[1] = gene group (A), Unigene No. Rn.167075
[2] = gene group (C), Unigene No. Rn.120914

## O=[N+]([O-])c1cc[n+]([O-])c2ccccc12 [TS049, 4-Nitroquinoline-1-oxide]
Gene group (A), Unigene No. Rn.144554
  Behavior of gene caused by administration of chemical substance, Gene No. 4846: −
[1]
  Behavior of gene caused by administration of chemical substance, Gene No. 2026: −
  Behavior of gene caused by administration of chemical substance, Gene No. 4218: −
Gene group (A), Unigene No. Rn.5834
  Behavior of gene caused by administration of chemical substance, Gene No. 6182: −
Gene group (A), Unigene No. Rn.9836
  Behavior of gene caused by administration of chemical substance, Gene No. 5600: −
Gene group (B), Unigene No. Rn.1430
  Behavior of gene caused by administration of chemical substance, Gene No. 1494: −
Gene group (B), Unigene No. Rn.19329
  Behavior of gene caused by administration of chemical substance, Gene No. 2045: −
Gene group (B), Unigene No. Rn.21240
  Behavior of gene caused by administration of chemical substance, Gene No. 2203: −
Gene group (C), Unigene No. Rn.106184
  Behavior of gene caused by administration of chemical substance, Gene No. 533: −
Gene group (C), Unigene No. Rn.108075
  Behavior of gene caused by administration of chemical substance, Gene No. 725: −
Gene group (C), Unigene No. Rn.11766
  Behavior of gene caused by administration of chemical substance, Gene No. 1163: −
Gene group (C), Unigene No. Rn.118529
  Behavior of gene caused by administration of chemical substance, Gene No. 4973: −
Gene group (C), Unigene No. Rn.119024
  Behavior of gene caused by administration of chemical substance, Gene No. 4095: −
[2]
  Behavior of gene caused by administration of chemical substance, Gene No. 1334: −
  Behavior of gene caused by administration of chemical substance, Gene No. 6620: −
Gene group (C), Unigene No. Rn.123063
  Behavior of gene caused by administration of chemical substance, Gene No. 6303: −
Gene group (C), Unigene No. Rn.143213
  Behavior of gene caused by administration of chemical substance, Gene No. 5878: −
Gene group (C), Unigene No. Rn.144946
  Behavior of gene caused by administration of chemical substance, Gene No. 1131: −
Gene group (C), Unigene No. Rn.14744
  Behavior of gene caused by administration of chemical substance, Gene No. 1562: −
Gene group (C), Unigene No. Rn.1647
  Behavior of gene caused by administration of chemical substance, Gene No. 1741: −
Gene group (C), Unigene No. Rn.164817
  Behavior of gene caused by administration of chemical substance, Gene No. 893: −
Gene group (C), Unigene No. Rn.167685
  Behavior of gene caused by administration of chemical substance, Gene No. 6026: −
Gene group (C), Unigene No. Rn.185941
  Behavior of gene caused by administration of chemical substance, Gene No. 154: −
Gene group (C), Unigene No. Rn.18728
  Behavior of gene caused by administration of chemical substance, Gene No. 1993: −
Gene group (C), Unigene No. Rn.201760
  Behavior of gene caused by administration of chemical substance, Gene No. 813: −
Gene group (C), Unigene No. Rn.23969
  Behavior of gene caused by administration of chemical substance, Gene No. 2494: −
Gene group (C), Unigene No. Rn.24561
  Behavior of gene caused by administration of chemical substance, Gene No. 2546: −
Gene group (C), Unigene No. Rn.43232
  Behavior of gene caused by administration of chemical substance, Gene No. 3776: −
Gene group (C), Unigene No. Rn.4620
  Behavior of gene caused by administration of chemical substance, Gene No. 3929: −
Gene group (C), Unigene No. Rn.9757
  Behavior of gene caused by administration of chemical substance, Gene No. 1119: −
Gene group (C), Unigene No. Rn.9779
  Behavior of gene caused by administration of chemical substance, Gene No. 6742: −
Gene group (C), Unigene No. Rn.9862
  Behavior of gene caused by administration of chemical substance, Gene No. 5634: −
Gene group (D), Unigene No. Rn.9939
  Behavior of gene caused by administration of chemical substance, Gene No. 5726: +
